Values quoted from earlier work, collected in US20200061095A1, “Compounds for the Treatment of Systemic Insulin Resistance Disorders and the Use Thereof” (Galectin Sciences, LLC, priority 2017, published 2020).

Assays:
Galectin 3 = Galectin 3 (Homo sapiens, UniProt P17931); conditions: reported
lung fibrosis = conditions: pulmonary administration, intra-tracheal instillation or nebulizers

Chain of Galectin 3 (P17931 whole entry, species assumed): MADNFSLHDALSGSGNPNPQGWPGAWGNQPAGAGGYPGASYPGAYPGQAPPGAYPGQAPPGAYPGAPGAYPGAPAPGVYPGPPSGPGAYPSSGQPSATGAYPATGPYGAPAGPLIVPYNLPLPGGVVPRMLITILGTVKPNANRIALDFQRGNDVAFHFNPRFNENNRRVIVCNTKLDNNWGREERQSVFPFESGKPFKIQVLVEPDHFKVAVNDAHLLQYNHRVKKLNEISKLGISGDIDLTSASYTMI

Compound: OC[C@H]1O[C@@H](S[C@@H]2O[C@H](CO)[C@H](O)[C@H](n3cc(-c4cccc(F)c4)nn3)[C@H]2O)[C@H](O)[C@@H](n2cc(-c3cccc(F)c3)nn2)[C@H]1O [TD-139]
- binding to Galectin 3 (Galectin 3): bind to Galectin 3
- efficacy in mouse model of lung fibrosis (lung fibrosis): effective
